Laboratory results reported in publication PMC9623604 (European journal of pharmacology, 2022).

Target: mitochondrial complex I (NADH:ubiquinone oxidoreductase) (Mus musculus, UniProt P03888+Q91WD5+Q9DC70)
Assay type: biochemical

## CN(C)C(=N)N=C(N)N [metformin]
  IC50: ~2000 µM
